Laboratory results published in EP4752152A1, “STEROID COMPOUND, AND PREPARATION METHOD THEREFOR AND USE THEREOF” (Cholesgen (Shanghai) Co.Ltd., priority 2023, dated 2025).
pIC50: −log10 of the molar value.

Experiments:
SREBP pathway = test: SREBP luciferase reporter gene system (SRE-luciferase assay); format: cell-based, human; settings: Huh-7/SRE-luc cells, sterol-deficient medium, 0.01-10 µM
In short: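 Huh-7 cells stably carrying LDLR promoter-luciferase plus GFP were treated 16 h in sterol-deficient medium (5% lipoprotein-deficient serum, 2 µM lovastatin, 10 µM mevalonic acid) at 0.01–10 µM. Luciferase/GFP ratio measured as pathway activity; inhibition versus DMSO fitted to a four-parameter model for IC50.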

[1] = test system: Fatty Acid Synthase (FASN) gene; test: Inhibition of FASN gene expression (qPCR) in Huh-7 cells; format: cell-based, human; settings: Homo sapiens, Huh-7, 16 h, Huh-7 cells, starvation medium, 16 hours, qPCR; class symbols; read-out: FASN IC50
Procedure: Huh-7 cells (purchased from ATCC) were cultured in DMEM medium (containing 10% fetal bovine serum LONSERA S711-001S) at 37°C in a 5% CO2 incubator. After 24 hours, the original medium was aspirated and replaced with DMEM starvation medium (containing 5% lipoprotein deficient serum (LPDS), 2 µM lovastatin, and 10 µM mevalonate). The control group was treated with dimethyl sulfoxide (DMSO), while the compound treatment groups were treated with different concentrations of compounds. The highest concentration of the compound was 3000 nM, with 3-fold dilutions, totaling 5 concentrations. The cells were cultured for 16 hours. Cell lysis was performed, followed by reverse transcription from cells to cDNA, and qPCR was performed to detect the expression of the SREBP target gene Fatty Acid Synthase (FASN) gene (FASN gene forward primer sequence: 5'-[…]-3', reverse primer sequence: 5'-[…]-3'). The IC50 was calculated. The test data for each test compound were analyzed using Prism software (with the DMSO-treated group as the reference to calculate the compound inhibition rate, fitted using the Prism log(inhibitor) vs. responseVariable slope (four-parameter) model, calculation formula: Y = Bottom + (Top - Bottom)/(1 + 10^((LogIC50 - X) × HillSlope))), to obtain the IC50 parameters of the compounds. Table 4: Inhibition results of FASN gene expression by compounds from some examples

| Structure (SMILES) | IC50 (SREBP pathway; Homo sapiens, Huh-7, 16 h) [µM] | pIC50 [1] | IC50 (SREBP pathway; 16 hours) [µM] |
| --- | --- | --- | --- |
| COc1ccc(C(O)CCC[C@@H](C)[C@H]2CC[C@H]3[C@H]4[C@H](CC[C@]23C)[C@@]2(C)CC[C@H](O)[C@H](O)[C@@H]2CC4(F)F)c(F)c1 (stereo partly drawn) [Compound 67, (1R,3aS,3bS,5aR,6R,7S,9aR,9bS,11aR)-4,4-difluoro-1-[(2R)-6-(2-fluoro-4-methoxyphenyl)-6-hydroxyhexan-2-yl]-9a,11a-dimethylhexadecahydro-1H-cyclopenta[1,2-a]phenanthrene-6,7-diol] | 0.203 | 6.30 to 6.70 | – |
| COc1nc(F)ccc1[C@H](O)CCC[C@@H](C)[C@H]1CC[C@H]2[C@H]3[C@H](CC[C@]12C)[C@@]1(C)CC[C@H](O)C(=O)[C@@H]1CC3(F)F (single isomer, unassigned) [Compound 260] | 0.03 | > 6.70 | – |
| COc1ccnc(F)c1[C@H](O)CCC[C@@H](C)[C@H]1CC[C@H]2[C@H]3[C@H](CC[C@]12C)[C@@]1(C)CC[C@H](O)[C@H](O)[C@@H]1CC3(F)F (single isomer, unassigned) [Compound 230] | 0.062 | > 6.70 | – |
| COc1ccc(C(O)CCC[C@@H](C)[C@H]2CC[C@H]3C4=C(F)C[C@H]5[C@@H](O)[C@@H](O)CC[C@]5(C)[C@H]4CC[C@]23C)c(F)c1 (stereo partly drawn) [Compound 68, (1R,3aR,5aR,6R,7S,9aR,9bR,11aR)-4-fluoro-1-[(2R)-6-(2-fluoro-4-methoxyphenyl)-6-hydroxyhexan-2-yl]-9a,11a-dimethyl-2,3,3a,5,5a,6,7,8,9,9a,9b,10,11,11a-tetradecahydro-1H-cyclopenta[1,2-a]phenanthrene-6,7-diol] | 0.434 | 6.30 to 6.70 | – |
| C[C@H](CCCC(O)c1ccc(F)cc1F)[C@H]1CC[C@H]2[C@H]3[C@H](CC[C@]12C)[C@@]1(C)CC[C@H](O)[C@H](O)[C@@H]1CC3(F)F (stereo partly drawn) [Compound 102, (1R,3aS,3bS,5aR,6R,7S,9aR,9bS,11aR)-1-[(2R)-6-(2,4-difluorophenyl)-6-hydroxyhexan-2-yl]-4,4-difluoro-9a,11a-dimethylhexadecahydro-1H-cyclopenta[1,2-a]phenanthrene-6,7-diol] | 0.14 | > 6.70 | – |
| COc1nc(F)cc(F)c1C(O)CCC[C@@H](C)[C@H]1CC[C@H]2[C@H]3[C@H](CC[C@]12C)[C@@]1(C)CC[C@H](O)[C@H](O)[C@@H]1CC3(F)F (stereo partly drawn) [Compound 206, (1R,3aS,3bS,5aR,6R,7S,9aR,9bS,11aR)-1-[(2R)-6-(4,6-difluoro-2-methoxypyridin-3-yl)-6-hydroxyhexan-2-yl]-4,4-difluoro-9a,11a-dimethylhexadecahydro-1H-cyclopenta[1,2-a]phenanthrene-6,7-diol] | 0.145 | 6.30 to 6.70 | – |
| C[C@H](CCCC(O)c1nc2cnccc2n1C)[C@H]1CC[C@H]2[C@H]3[C@H](CC[C@]12C)[C@@]1(C)CC[C@H](O)[C@H](O)[C@@H]1CC3(F)F (stereo partly drawn) [Compound 311, (1R,3aS,3bS,5aR,6R,7 S,9aR,9bS,11aR)-4,4-Difluoro-1-[(2R)-6-hydroxy-6-(1-methylimidazo[5,4-c]pyridin-2-yl)hexan-2-yl]-9a,11a-dimethylhexadecahydro-1H-cyclopenta[1,2-a]phenanthrene-6,7-diol] | 0.072 | > 6.70 | – |
| COc1ncccc1C(O)CCC[C@@H](C)[C@H]1CC[C@H]2C3=C(F)C[C@H]4[C@@H](O)[C@@H](O)CC[C@]4(C)[C@H]3CC[C@]12C (stereo partly drawn) [Compound 83] | 0.092 | 6.30 to 6.70 | – |
| COc1cc(F)c([C@@H](O)CCC[C@@H](C)[C@H]2CC[C@H]3[C@H]4[C@H](CC[C@]23C)[C@@]2(C)CC[C@H](O)[C@H](O)[C@@H]2CC4(F)F)c(F)c1Br (single isomer, unassigned) [Compound 198] | 0.058 | > 6.70 | – |
| COc1ccc(C(O)CCC[C@@H](C)[C@H]2CC[C@H]3[C@H]4[C@H](CC[C@]23C)[C@@]2(C)CC[C@H](O)[C@H](O)[C@@H]2CC4(F)F)c(F)n1 (single isomer, unassigned) [Compound 241, (1R,3aS,3bS,5aR,6R,7S,9aR,9bS,11aR)-4,4-difluoro-1-[(2R,6R)-6-(2-fluoro-6-methoxypyridin-3-yl)-6-hydroxyhexan-2-yl]-9a,11a-dimethylhexadecahydro-1H-cyclopenta[1,2-a]phenanthrene-6,7-diol or (1R,3aS,3bS,5aR,6R,7S,9aR,9bS,11aR)-4,4-difluoro-1-[(2R,6S)-6-(2-fluoro-6-methoxypyridin-3-yl)-6-hydroxyhexan-2-yl]-9a,11a-dimethylhexadecahydro-1H-cyclopenta[1,2-a]phenanthrene-6,7-diol] | 0.14 | > 6.70 | – |
| C[C@H](CCC1CC(=NO)C1)[C@H]1CC[C@H]2[C@@H]3CC[C@H]4C[C@@H](O)CC[C@]4(C)[C@H]3CC[C@]12C (stereo partly drawn) [Compound 135, {3-[(3R)-3-[(1R,3aS,3bR,5aS,7S,9aS,9bS,11aR)-7-hydroxy-9a,11a-dimethylhexadecahydro-1H-cyclopenta[1,2-a]phenanthren-1-yl]butyl]cyclobutylidene}hydroxylamine] | 4.03 | – | – |
| C[C@H](CCC[C@H](O)c1nc2cnccc2n1C)[C@H]1CC[C@H]2[C@H]3[C@H](CC[C@]12C)[C@@]1(C)CC[C@H](O)[C@H](O)[C@@H]1CC3(F)F [Compound 318, (1R,3aS,3bS,5aR,6R,7S,9aR,9bS,11aR)-4,4-difluoro-1-[(2R,6S)-6-hydroxy-6-(1-methylimidazo[5,4-c]pyridin-2-yl)hexan-2-yl]-9a,11a-dimethylhexadecahydro-1H-cyclopenta[1,2-a]phenanthrene-6,7-diol] | 0.296 | – | – |
| C[C@H](CCCC(O)C1CC2CCC1C2)[C@H]1CC[C@H]2[C@H]3[C@H](CC[C@]12C)[C@@]1(C)CC[C@H](O)[C@H](O)[C@@H]1CC3(F)F (stereo partly drawn) [Compound 213, (1R,3aS,3bS,5aR,6R,7 S,9aR,9bS,11aR)-1-[(2R)-6-(Bicyclo[2.2.1]heptan-2-yl)-6-hydroxyhexan-2-yl]-4,4-difluoro-9a,11a-dimethylhexadecahyd ro-1H-cyclopenta[1,2-a]phenanthrene-6,7-diol] | 0.569 | – | – |
| C[C@H](CCCC(O)c1cccc(OC(F)(F)F)c1)[C@H]1CC[C@H]2[C@H]3[C@H](CC[C@]12C)[C@@]1(C)CC[C@H](O)[C@H](O)[C@@H]1CC3(F)F (single isomer, unassigned) [Compound 190, (1R,3aS,3bS,5aR,6R,7S,9aR,9bS,11aR)-4,4-difluoro-1-[(2R,6S)-6-hydroxy-6-{^3-[(trifluoromethyl)oxy]phenyl}hexan-2-yl]-9a,11a-dimethylhexadecahydro-1H-cyclopenta[1,2-a]phenanthrene-6,7-diol or (1R,3aS,3bS,5aR,6R,7S,9aR,9bS,11aR)-4,4-difluoro-1-[(2R,6R)-6-hydroxy-6-{3-[(trifluoromethyl)oxy]phenyl}hexan-2-yl]-9a,11a-dimethylhexadecahydro-1H-cyclopenta[1,2-a]phenanthrene-6,7-diol] | 0.355 | – | – |
| C[C@H](CCC(O)c1ccc(F)nc1OC1CC1)[C@H]1CC[C@H]2[C@H]3[C@H](CC[C@]12C)[C@@]1(C)CC[C@H](O)[C@H](O)[C@@H]1CC3(F)F (stereo partly drawn) [Compound 382, (1R,3aS,3bS,5aR,6R,7S,9aR,9bS,11aR)-1-[(2R)-5-[2-(cyclopropyloxy)-6-fluoropyridin-3-yl]-5-hydroxypentan-2-yl]-4,4-difluoro-9a,11a-dimethylhexadecahydro-1H-cyclopenta[1,2-a]phenanthrene-6,7-diol] | 0.057 | – | – |
| C[C@H](CCCC(O)c1c2ccccc2nn1C)[C@H]1CC[C@H]2[C@H]3[C@H](CC[C@]12C)[C@@]1(C)CC[C@H](O)[C@H](O)[C@@H]1CC3(F)F (stereo partly drawn) [Compound 325, (1R,3aS,3bS,5aR,6R,7 S,9aR,9bS,11aR)-4,4-Difluoro-1-[(2R)-6-hydroxy-6-(2-methylindazol-3-yl)hexan-2-yl]-9a,11a-dimethylhexadecahydro-1H-cyclopenta[1,2-a]phenanthrene-6,7-diol] | 0.148 | – | – |
| COc1ccc(F)c(C(O)CCC[C@@H](C)[C@H]2CC[C@H]3[C@H]4[C@H](CC[C@]23C)[C@@]2(C)CC[C@H](O)[C@H](O)[C@@H]2CC4(F)F)c1 (single isomer, unassigned) [Compound 166, (1R,3aS,3bS,5aR,5aR,6R,7S,9aR,9bS,11aR) -4,4-difluoro-1-[(2R,6S)-6-(2-fluoro-5-methoxyphenyl)-6-hydroxyhexan-2-yl]-9a,11a-dimethylhexadecahydro-1H-cyclopenta[1,2-a]phenanthrene-6,7-diol or (1R,3aS,3bS,5aR,6R,7S,9aR,9bS,11aR)-4,4-difluoro-1-[(2R,6R)-6-(2-fluoro-5-methoxyphenyl)-6-hydroxyhexan-2-yl]-9a,11a-dimethylhexadecahydro-1H-cyclopenta[1,2-a]phenanthrene-6,7-diol] | – | – | 0.138 |
